This passage reports Km results from paper PMC10440746, “Biosynthesis of 3,6-Dideoxy-heptoses for the Capsular Polysaccharides of Campylobacter jejuni” (Biochemistry, 2023).

SMILES strings stand for the structures.

The subject of one assay is C5-epimerase (HS:5). Particulars: pH 7.5, 25 °C; 50 mM HEPES/KOH; 300 μM NADPH; apparent.
In the next assay the test system is T1, C3-dehydratase (HS:5).
T1 construct: full length, N-terminal 21-residue His6 tag (pET-28a), codon-optimised gene, E. coli BL21(DE3)
Nature of the assay: coupled glutamate dehydrogenase assay, NADPH oxidation at […] nm. The assay is classed as biochemical, Campylobacter. As to conditions: pH 7.5, 25 °C; 0.2 mM PLP, 4.0 mM L-glutamate; 50 mM ammonium bicarbonate; apparent.

What is called Km is the substrate concentration at which the rate is half of its maximum.

Turning to `Nc1nc2c(ncn2[C@@H]2O[C@H](COP(=O)(O)OP(=O)(O)O[C@H]3O[C@H](CCO)C(=O)C[C@@H]3O)[C@@H](O)[C@H]2O)c(=O)[nH]1` [compound 8, GDP-3,6-dideoxy-4-keto-α-D-threo-heptose], the Km with C5-epimerase (HS:5) is 480 ± 80 µM.

With `Nc1nc2c(ncn2[C@@H]2O[C@H](COP(=O)(O)OP(=O)(O)O[C@H]3O[C@H](CCO)C(=O)[C@H](O)[C@@H]3O)[C@@H](O)[C@H]2O)c(=O)[nH]1` [compound 5, GDP-6-deoxy-4-keto-α-D-lyxo-heptose], in the assay on C3-dehydratase (HS:5), the Km is 840 ± 60 µM.
